Data: patent publication US20250049026A1, “BIOCIDAL COMPOSITIONS WITH HYDRONIUM ION SOURCES FOR BIOFILM CONTROL” (ECOLAB USA INC., priority 2020, published 2025)
Marks after values point to notes of the source that are not given here.

Tested on: Pseudomonas aeruginosa (ATCC 15442) biofilm
Test: Efficacy against biofilm, CDC Biofilm Reactor and Single Tube Method (ASTM E3161-18, ASTM E2871-19)
Assay type: cell-based
Conditions: for Average Log Reduction: 10 min exposure
Method: The efficacy against biofilm was performed as described in the standard test methods ASTM E3161-18 (Standard Practice for Preparing a Pseudomonas aeruginosa or Staphylococcus aureus Biofilm using the CDC Biofilm Reactor) and ASTM E2871-19 (Standard Test Method for Determining Disinfectant Efficacy Against Biofilm Grown in the CDC Biofilm Reactor Using the Single Tube Method). A Pseudomonas aeruginosa (ATCC 15442) biofilm was the organism used for determination of composition efficacy against biofilm on hard non-porous surfaces. Biofilm for composition efficacy was generated as outlined in ASTM E3161-18. A 10 uL sample of a thawed frozen stock culture was used to inoculate 10 mL of sterile 100 mg/L Tryptic Soy Broth (TSB) which was then allowed to incubate for 24±2 hours at 35±2° C. Following growth, a 1 mL sample of this initial culture was used to inoculate a CDC Biofilm Reactor containing borosilicate glass coupons and 500 mL of sterile 300 mg/L TSB. The reactor system was allowed to incubate at room temperature (i.e. 21±2° C.) for 24±2 hours with a baffle rotational speed of 125±5 RPM under Batch Phase as directed in ASTM E3161-18. Following Batch Phase growth, Continuous Flow Phase growth was initiated by continuous pumping of 100 mg/L TSB into the reactor system at an appropriate flow rate to ensure the test organism residence time of 30±2 minutes. The reactor system was allowed to incubate at room temperature (i.e. 21±2° C.) for 24±2 hours with a baffle rotational speed of 125±5 RPM under Continuous Flow Phase as directed in ASTM E3161-18. Following completion of the growth, biofilm test carriers were removed from the CDC Biofilm Reactor, rinsed in sterile buffer to remove any non-adhered cells and individual carriers were placed into sterile 50 mL conical tubes for composition treatment. Determination of compositional efficacy against Pseudomonas aeruginosa biofilm was performed as outlined in ASTM E2871-19. A 4 mL sample of each composition (or sterile buffer for control carriers) was pipetted into each corresponding tube containing a test carrier. Triplicate test carriers were analyzed per composition or control. Test and control carriers were allowed to expose for 10 minutes at room temperature (i.e. 21±2° C.). Following exposure, each carrier was appropriately neutralized with 36 mL of Neutralizing Broth. Neutralized carriers were vortex mixed and sonicated to remove/disaggregate the biofilm from the carrier surface as outlined in ASTM E2871-19. Disaggregated biofilm samples were serially diluted in sterile buffer and spread plated onto appropriate agar for determination of plate counts. Log reductions for each composition were determined by comparing the calculated average Log10 from the set of recovered control carriers to the calculated average Log10 from each set of recovered composition carriers. In addition to carrier control determination, an appropriate Neutralization Confirmation Control was performed for each composition to ensure that the Neutralizing Broth chosen appropriately neutralized the test solution.
The various combinations of biocides and hydronium ion (all from sulfuric acid) were evaluated at the use concentration (ppm biocide) pH and moles of hydronium in the use concentration as set forth in Table 2.

[1] = active 100 ppm, pH 2.15, hydronium ion 0.0071 M (sulfuric acid)
[2] = active 100 ppm, pH 2.50, hydronium ion 0.0032 M (sulfuric acid)
[3] = active 100 ppm, pH 3.00, hydronium ion 0.001 M (sulfuric acid)

Compound: CCCCCCCC(=O)O [Octanoic acid]
- Average Log Reduction [1]: 4.28 log
- Average Log Reduction [2]: 7.59 log
- Average Log Reduction [3]: 2.19 log
- Average Log Reduction (active 100 ppm, pH 6.43, hydronium ion 0.0000 M): 2.07 log
- Average Log Reduction (active 200 ppm, pH 6.43, hydronium ion 0.0000 M): 2.15 log
- Average Log Reduction (active 300 ppm, pH 6.43, hydronium ion 0.0000 M): 2.15 log
- Average Log Reduction (active 400 ppm, pH 6.43, hydronium ion 0.0000 M): 2.15 log

Compound: CC(=O)OO [POAA, Peroxyacetic acid]
- micro efficacy (220 ppm, without the hydronium ion): fails to provide sufficient micro efficacy
- Average Log Reduction (active 110 ppm, pH 2.29, hydronium ion 0.0051 M (sulfuric acid)): 5.94 log
- Average Log Reduction (active 220 ppm, pH 2.00, hydronium ion 0.01 M (sulfuric acid)): 4.45* log
- Average Log Reduction (active 220 ppm, pH 2.29, hydronium ion 0.0051 M (sulfuric acid)): 8.70 log
- Average Log Reduction (active 220 ppm, pH 2.30, hydronium ion 0.0050 M (sulfuric acid)): 2.42 log
- Average Log Reduction (active 220 ppm, pH 2.45, hydronium ion 0.0035 M (sulfuric acid)): 2.11 log
- Average Log Reduction (active 220 ppm, pH 2.50, hydronium ion 0.0032 M (sulfuric acid)): 2.15 log
- Average Log Reduction (active 220 ppm, pH 2.98, hydronium ion 0.001 M (sulfuric acid)): 2.15 log
- Average Log Reduction (active 220 ppm, pH 3.46, hydronium ion 0.00035 M (sulfuric acid)): 2.15 log
- Average Log Reduction (active 220 ppm, pH 4.20, hydronium ion 0.000063 M [No hydronium ion source], room temperature): 2.15 log
- Average Log Reduction (active 320 ppm, pH 3.45, hydronium ion 0.00035 M (sulfuric acid)): 2.41 log
- Average Log Reduction (active 420 ppm, pH 3.46, hydronium ion 0.00035 M (sulfuric acid)): 2.41 log
- Average Log Reduction (active 520 ppm, pH 3.44, hydronium ion 0.00035 M (sulfuric acid)): 2.41 log

Compound: CCCCCCCC(=O)OO [POOA, Peroxyoctanoic acid]
- Average Log Reduction [1]: 8.43 log
- Average Log Reduction [2]: 7.24 log
- Average Log Reduction [3]: 2.19 log
- Average Log Reduction (active 100 ppm, pH 5.45, hydronium ion 0.0000 M): 1.95 log

Compound: Linear alkylbenzene sulfonate [LAS]
- Average Log Reduction (active 1000 ppm, pH 2.15, hydronium ion 0.0071 M (sulfuric acid)): 5.74 log
- Average Log Reduction (active 1000 ppm, pH 3.02, hydronium ion 0.00095 M (sulfuric acid)): 2.19 log
- Average Log Reduction (active 1000 ppm, pH 7.48, hydronium ion 0.0000 M): 2.07 log
- Average Log Reduction (active 2000 ppm, pH 7.48, hydronium ion 0.0000 M): 2.41 log
- Average Log Reduction (active 3000 ppm, pH 7.46, hydronium ion 0.0000 M): 2.41 log
- Average Log Reduction (active 4000 ppm, pH 7.48, hydronium ion 0.0000 M): 2.41 log
